Results on seven molecules are retold here after patent US10174013B2, “Benzimidazole derivatives as kinase inhibitors” (SELVITA S.A., priority 2012, dated 2019).

The test system of one data set is FLT3-ITD. Put plainly: ADP-Glo Kinase Assay, Flt3 ITD. The class given is biochemical, Human. To be noted: 1 μM compound. On the procedure: Compounds of the present invention were tested for their inhibitory activity against Pim-1, Pim-2, Pim-3, Flt3 wt, Flt3 ITD, CDK2/E and DYRK1. The testing of the compounds was carried out using the ADP-Glo™ Kinase Assay from Promega Corporation (Madison, Wis., USA).
The ADP-Glo™ Kinase Assay is a luminescent ADP detection assay to measure kinase activity by quantifying the amount of ADP produced during a kinase reaction. The kinase assay is performed in kinase assay buffer (5 mM MOPS, pH 7.5, 5 mM MgCl2, 0.4 mM EDTA, 1.5 mM DTT). Test samples initially dissolved in DMSO at 10 mM were diluted with the assay buffer to 1000 nM. A 30 μL volume/well of a mixture of substrates containing ATP (final ATP concentration in each kinase assay was equal to its apparent ATP Km).
The assay was performed in two steps: first, after the kinase reaction, an equal volume of ADP-Glo™ Reagent was added to terminate the kinase reaction and deplete the remaining ATP. Second, the Kinase Detection Reagent was added to simultaneously convert ADP to ATP and allowed the newly synthesized ATP to be measured using a luciferase/luciferin reaction. The luminescent signal generated was proportional to the ADP concentration produced and was correlated with kinase activity. A microplate spectrophotometer (Synergy 2 multi-mode microplate reader [BioTek]) was used for detecting the luminescence. The data was normalized and the percent of inhibition was obtained according to the following equation: […]

A further data set addresses FLT3wt (Homo sapiens (Human), UniProt P36888). The experiment in a line: ADP-Glo Kinase Assay, Flt3 wt. It counts as biochemical. To be noted: 1 μM compound; for inhibition at 1 µM: read-out: Flt3wt % INH (1 μM). The essentials: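 Compounds were diluted in assay buffer to 1000 nM and incubated with kinase, substrate and ATP at apparent Km. Remaining ATP was depleted, ADP converted to ATP and detected by luciferase; percent inhibition came from normalized luminescence.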

A further data set relates to MV4-11 xenograft. The experiment in a line: MV4-11 xenograft in immunocompromised mice. The class given is in vivo. In a few lines: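 MV4-11 leukemic cells engrafted in NOD/scid or SCID/beige mice; oral dosing started at tumor volume approx. 50-200 mm^3, daily QD or BID for 2-3 weeks. Efficacy read as tumor growth inhibition (TGI), tolerability as body weight change (ΔBW).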

The target of the next data set is hERG potassium channel (Homo sapiens (Human), UniProt Q12809). Put plainly: hERG automated patch clamp assay (QPatch HT). In a few lines: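 Automated whole-cell patch clamp of hERG current in mammalian cells at room temperature. Compounds applied at 0.1, 1, 3, 10 and 30 μM, 3 min per concentration, n≥2 cells each.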
hERG potassium channel, sequence (Q12809 whole entry): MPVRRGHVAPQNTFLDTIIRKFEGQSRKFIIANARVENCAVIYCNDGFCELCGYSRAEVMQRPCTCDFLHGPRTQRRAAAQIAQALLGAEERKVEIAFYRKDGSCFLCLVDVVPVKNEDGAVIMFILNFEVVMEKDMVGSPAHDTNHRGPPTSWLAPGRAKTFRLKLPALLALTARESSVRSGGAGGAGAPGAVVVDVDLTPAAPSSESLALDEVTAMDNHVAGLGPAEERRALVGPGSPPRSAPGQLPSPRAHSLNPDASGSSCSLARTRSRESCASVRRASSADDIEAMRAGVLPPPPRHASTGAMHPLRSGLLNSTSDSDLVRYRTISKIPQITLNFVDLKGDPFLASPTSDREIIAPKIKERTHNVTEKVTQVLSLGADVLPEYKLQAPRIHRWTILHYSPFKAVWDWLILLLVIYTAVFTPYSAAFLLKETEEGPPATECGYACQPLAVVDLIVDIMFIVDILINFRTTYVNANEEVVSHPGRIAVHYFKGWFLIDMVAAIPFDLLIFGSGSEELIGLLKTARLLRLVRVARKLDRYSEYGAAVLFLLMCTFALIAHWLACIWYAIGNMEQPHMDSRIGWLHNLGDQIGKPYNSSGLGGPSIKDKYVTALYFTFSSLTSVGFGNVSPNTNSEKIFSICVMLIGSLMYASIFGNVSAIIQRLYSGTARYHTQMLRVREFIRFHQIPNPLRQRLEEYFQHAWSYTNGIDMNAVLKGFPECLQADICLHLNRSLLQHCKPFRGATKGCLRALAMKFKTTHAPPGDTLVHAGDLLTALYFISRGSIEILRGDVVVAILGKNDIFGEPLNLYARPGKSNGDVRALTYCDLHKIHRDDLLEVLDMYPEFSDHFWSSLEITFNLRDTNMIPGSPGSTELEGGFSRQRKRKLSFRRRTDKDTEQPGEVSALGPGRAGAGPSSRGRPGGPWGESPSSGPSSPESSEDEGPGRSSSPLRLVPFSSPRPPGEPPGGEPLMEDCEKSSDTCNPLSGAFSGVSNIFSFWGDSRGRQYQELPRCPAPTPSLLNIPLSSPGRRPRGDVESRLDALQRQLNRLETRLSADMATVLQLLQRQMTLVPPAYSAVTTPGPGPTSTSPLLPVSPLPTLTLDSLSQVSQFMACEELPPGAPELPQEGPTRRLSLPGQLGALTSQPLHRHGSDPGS
Another data set has as its system SW-480 cells. Put plainly: Growth inhibition, MTS assay, SW-480. The class given is cell-based, Human. The following applies: 72 hours, MTS cell viability, read-out: SW-480 ED50.
The test system of the next data set is Jeko-1 cells. Put plainly: Growth inhibition, MTS assay, Jeko-1. The class given is cell-based, Human. To be noted: 72 hours, MTS cell viability, read-out: Jeko-1 ED50.
Another data set concerns MOLM13 cells. Put plainly: Growth inhibition, MTS assay, MOLM13. The following applies: 72 hours, MTS cell viability, read-out: MOLM 13 ED50. It counts as cell-based, Human.
A further data set deals with MOLM16 cells. Put plainly: Growth inhibition, MTS assay, MOLM16. It counts as cell-based, Human. The following applies: MTS cell viability, read-out: MOLM 16 ED50.
Another data set has as its system KG-1 cells. Put plainly: Growth inhibition, MTS assay, KG-1. It counts as cell-based, Human. The following applies: 72 hours, MTS cell viability. From the text:
The following cell lines, were obtained and used in tests as outlined below: • Human myelomonocytic, biphenotypic leukemia MV4-11 cells (harboring a Flt3-ITD mutation); • Human Acute Myeloid Leukemia MOLM16 cells; • Human Acute Myeloid Leukemia MOLM13 cells (harboring a Flt3-ITD mutation); • Human Myeloid Leukemia KG-1 cells; • Human erythroleukemia HEL92 cells; • Human mantle cell lymphoma Jeko-1 cells; • Human hepatocellular carcinoma HepG2 cells; and • Human colon adenocarcinoma SW-480 cells.
The assays were carried out according to the following protocol, which is described as an example for the MV4-11 cells:
Ten thousand MV4-11 cells were inoculated into each well of a 96-well microplate (manufactured by Corning Corp.) using Iscove's MDM medium (culture medium) containing 10% fetal calf serum (FCS). The same day, a dimethyl sulfoxide (DMSO) solution of each test compound prepared in a concentration of 10 mmol/L was further diluted with DMSO to the desired concentrations (0.1, 0.5, 1, 2.5, 5 and 10 micromol/L), and the diluted solution was added to each well. The individual wells were further cultured in 5% carbon dioxide at 37° C. for 72 hours. […] Briefly, 10 μl MTS (3-(4,5-Dimethyl-2-thiazolyl)-5-(carboxymethoxyphenyl)-2-(4-sulfophenyl)-2H-tetrazolium was added to each well, and culturing was performed in 5% carbon dioxide at 37° C. for 2 hours. After this incubation and using a microplate spectrophotometer (Synergy 2 multi-mode microplate reader (BioTek)), the absorbance of each well was measured at 490 nm. The value for cells not incubated with a test compound was designated as 100%. By comparing these values with the absorbance difference obtained at the well in which each test compound was added, the cell viability (% viability) after treatment with the test compound was calculated.

The mark [1] stands for this setting: MV4-11 xenograft, oral, 75 mg/Kg BID.
Where [2] appears, read: MV4-11 xenograft, oral, doses as in Table 3.
[3] abbreviates: MV4-11 xenograft, oral, 100 mg/Kg QD.
[4] abbreviates: MV4-11 xenograft, oral, 150 mg/Kg QD.
The mark [5] stands for this setting: MV4-11 xenograft, oral, 150 mg/Kg BID.

Structures can show the parent of a compound that is named as a salt. Where two headings read alike, the source gives them in different places.

FLT3wt, sequence (P36888 27-993): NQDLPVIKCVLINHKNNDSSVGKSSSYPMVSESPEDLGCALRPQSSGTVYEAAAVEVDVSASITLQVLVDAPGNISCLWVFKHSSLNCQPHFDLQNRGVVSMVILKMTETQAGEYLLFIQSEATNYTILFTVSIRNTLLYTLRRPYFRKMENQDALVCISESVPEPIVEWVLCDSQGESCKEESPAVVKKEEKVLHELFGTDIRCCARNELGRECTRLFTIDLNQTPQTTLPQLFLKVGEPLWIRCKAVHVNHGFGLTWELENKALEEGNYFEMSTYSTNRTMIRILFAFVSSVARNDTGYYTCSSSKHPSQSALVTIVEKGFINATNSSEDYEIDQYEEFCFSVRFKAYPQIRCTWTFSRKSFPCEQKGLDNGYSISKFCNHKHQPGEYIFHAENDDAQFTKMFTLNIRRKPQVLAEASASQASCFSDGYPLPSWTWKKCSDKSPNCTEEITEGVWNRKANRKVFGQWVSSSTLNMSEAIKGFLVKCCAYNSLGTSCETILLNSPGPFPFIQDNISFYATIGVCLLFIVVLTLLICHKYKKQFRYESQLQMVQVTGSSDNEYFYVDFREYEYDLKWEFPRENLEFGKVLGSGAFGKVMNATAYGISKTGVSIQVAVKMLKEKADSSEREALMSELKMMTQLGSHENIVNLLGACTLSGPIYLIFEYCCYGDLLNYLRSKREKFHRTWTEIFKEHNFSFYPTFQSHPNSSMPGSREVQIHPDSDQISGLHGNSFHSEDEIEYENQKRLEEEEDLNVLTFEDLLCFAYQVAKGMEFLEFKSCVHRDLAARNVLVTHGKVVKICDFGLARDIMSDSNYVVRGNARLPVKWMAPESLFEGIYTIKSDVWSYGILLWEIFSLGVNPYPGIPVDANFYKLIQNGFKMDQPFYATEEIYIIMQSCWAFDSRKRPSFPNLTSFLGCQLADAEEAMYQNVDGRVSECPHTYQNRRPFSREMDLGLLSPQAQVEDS

As for `CCn1c(N2CCNCC2)nc2c([N+](=O)[O-])c(Br)c(Br)cc21` [Example 1A, 5,6-dibromo-1-ethyl-4-nitro-2-(piperazin-1-yl)-1H-1,3-benzodiazole hydrochloride], in the data set with FLT3-ITD, the “Flt3ITD % INH (1 μM)” value is given as 81%. Moreover, the inhibition at 1 µM on FLT3wt turned out to be 26%. For the same molecule, the figures for the “TGI (tumor growth inhibition)” value with MV4-11 xenograft (setting [1]) and in the data set with MV4-11 xenograft (setting [2]) were 73% and “more than 70%”, respectively. Besides, the “ΔBW (body weight change)” value in the data set with MV4-11 xenograft (setting [1]) is 5.4%. The IC50 on hERG potassium channel (human, 3 min) came to 1600 nM; in the data set on SW-480 cells (Homo sapiens, SW480), 2500 nM; in the data set on Jeko-1 cells (Homo sapiens, JeKo-1), 800 nM; in the data set with MOLM13 cells (Homo sapiens, MOLM-13), 700 nM; in the data set with MOLM16 cells (Homo sapiens, MOLM16, 72 hours), 500 nM.

On to `CC(C)n1c(N2CCNC[C@H]2C)nc2c([N+](=O)[O-])c(Br)c(Br)cc21` [Example 1AX], for which, in the data set with FLT3-ITD, the “Flt3ITD % INH (1 μM)” value worked out at 96%. The “Flt3wt % INH (1 μM)” value on FLT3wt is 83%. The “TGI (tumor growth inhibition)” value is 97% with MV4-11 xenograft (setting [3]) and “exceeding 97%” in the data set on MV4-11 xenograft (setting [2]). Moreover, the “ΔBW (body weight change)” value in the data set with MV4-11 xenograft (setting [3]) is reported as −2.2%. The IC50 against hERG potassium channel is 1230 nM; in the data set on Jeko-1 cells, over 100 nM; with MOLM13 cells, 60 nM; in the data set on MOLM16 cells (72 hours), 20 nM. Also, in the data set with KG-1 cells, the “KG-1 ED50” value turned out to be 120 nM.

As for `CC(C)n1c(N2CC[C@@H](N)C2)nc2c(C#N)c(Br)c(Br)cc21` [Example 1BI], the inhibition at 1 µM on FLT3wt stood at 27%. Moreover, the “TGI (tumor growth inhibition)” value was 87% in the data set on MV4-11 xenograft (setting [4]) and “above 87%” with MV4-11 xenograft (setting [2]). In the data set on MV4-11 xenograft (setting [4]), the “ΔBW (body weight change)” value turned out to be 3.8%. The IC50 worked out at 5170 nM against hERG potassium channel (human, 3 min); 700 nM in the data set on Jeko-1 cells (Homo sapiens, JeKo-1); 3250 nM in the data set on MOLM13 cells (Homo sapiens, MOLM-13); 80 nM with MOLM16 cells (Homo sapiens, MOLM16, 72 h). Besides, the “KG-1 ED50” value with KG-1 cells came out at 90 nM.

On to `CCCn1c(N2CCNCC2)nc2c([N+](=O)[O-])c(Br)c(Br)cc21` [Example 1M], for which the “Flt3wt % INH (1 μM)” value at FLT3wt stood at 46%. Besides, the “TGI (tumor growth inhibition)” value in the data set on MV4-11 xenograft (setting [5]) was 76%; in the data set on MV4-11 xenograft (setting [2]) it was “more than 70%”. In the data set on MV4-11 xenograft (setting [5]), the “ΔBW (body weight change)” value came to 9.2%. The figures for the IC50 at hERG potassium channel and in the data set with SW-480 cells were 520 nM and 2100 nM, respectively.

Regarding `CC(C)n1c(N2CCNCC2)nc2c([N+](=O)[O-])c(Br)c(Br)cc21` [Example 2A, 5,6-dibromo-4-nitro-2-(piperazin-1-yl)-1-(propan-2-yl)-1H-1,3-benzodiazole hydrochloride], at FLT3wt, the inhibition at 1 µM worked out at 66%. Moreover, the “TGI (tumor growth inhibition)” value in the data set on MV4-11 xenograft (setting [4]) is 99%; in the data set with MV4-11 xenograft (setting [2]), “exceeding 97%”. For the same molecule, the “ΔBW (body weight change)” value in the data set on MV4-11 xenograft (setting [4]) is given as −4.4%. The IC50 at hERG potassium channel worked out at 3060 nM; with SW-480 cells (Homo sapiens, SW480) it was 800 nM; in the data set with Jeko-1 cells (Homo sapiens, JeKo-1), 400 nM; with MOLM13 cells (Homo sapiens, MOLM-13) it was 250 nM; in the data set on MOLM16 cells (Homo sapiens, MOLM16, 72 h) it was 140 nM. The “KG-1 ED50” value with KG-1 cells amounted to 630 nM.

Take `Cl.O=[N+]([O-])c1c(Br)c(Br)cc2c1nc(N1CCNCC1)n2C1CCCC1` [Example 2D, 5,6-dibromo-1-cyclopentyl-4-nitro-2-(piperazin-1-yl)-1H-1,3-benzodiazole hydrochloride]: on FLT3wt, the inhibition at 1 µM amounted to 55%. For the same molecule, the “TGI (tumor growth inhibition)” value with MV4-11 xenograft (setting [4]) is 88%; in the data set with MV4-11 xenograft (setting [2]), “above 87%”. Also, the “ΔBW (body weight change)” value in the data set on MV4-11 xenograft (setting [4]) is recorded as −3.5%. Further, the IC50 against hERG potassium channel was found to be 1600 nM; with SW-480 cells (Homo sapiens, SW480), 600 nM.

With `CC(C)n1c(C2CCNCC2)nc2c([N+](=O)[O-])c(Br)c(Br)cc21` [Example 26A, 5,6-dibromo-4-nitro-2-(piperidin-4-yl)-1-(propan-2-yl)-1H-1,3-benzodiazole], the “Flt3ITD % INH (1 μM)” value in the data set on FLT3-ITD amounted to 93%. The inhibition at 1 µM at FLT3wt turned out to be 65%. Also, the “ΔBW (body weight change)” value in the data set on MV4-11 xenograft (MV-4-11 xenograft, 26A 25 mg/Kg BID) is −6%; in the data set with MV4-11 xenograft (MV-4-11 xenograft, 26A 50 mg/Kg BID), −3%. The “TGI (tumor growth inhibition)” value stood at 77% with MV4-11 xenograft (MV-4-11 xenograft, 26A 25 mg/Kg BID, 15 days) and 87% in the data set on MV4-11 xenograft (MV-4-11 xenograft, 26A 50 mg/Kg BID, 15 days). Moreover, the “KG-1 ED50” value in the data set with KG-1 cells stood at 470 nM. Moreover, the IC50 in the data set with Jeko-1 cells (Homo sapiens, JeKo-1) came out at 300 nM; in the data set on MOLM13 cells (Homo sapiens, MOLM-13), 320 nM; in the data set on MOLM16 cells (Homo sapiens, MOLM16, 72 h) it was 220 nM.
